In ChEMBL document CHEMBL5291721, “A preclinical secondary pharmacology resource illuminates target-adverse drug reaction associations of marketed drugs” (Nat Commun, 2023):

Assays:
[1] = target: T1, Type-1 angiotensin II receptor (Homo sapiens, UniProt P30556)
T1 sequence (P30556 whole entry): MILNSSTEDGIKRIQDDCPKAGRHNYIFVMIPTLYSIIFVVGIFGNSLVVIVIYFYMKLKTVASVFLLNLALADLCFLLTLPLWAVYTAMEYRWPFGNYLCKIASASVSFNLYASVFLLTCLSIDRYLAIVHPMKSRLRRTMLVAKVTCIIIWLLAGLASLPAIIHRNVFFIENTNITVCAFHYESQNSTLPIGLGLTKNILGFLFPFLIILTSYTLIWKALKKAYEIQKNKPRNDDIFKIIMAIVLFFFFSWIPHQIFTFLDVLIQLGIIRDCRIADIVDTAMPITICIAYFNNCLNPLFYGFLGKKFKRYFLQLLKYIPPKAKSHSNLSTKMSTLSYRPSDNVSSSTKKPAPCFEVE

[2] = target: T2, 5-hydroxytryptamine receptor 3A (Homo sapiens, UniProt P46098); type: functional
T2 sequence (P46098 whole entry): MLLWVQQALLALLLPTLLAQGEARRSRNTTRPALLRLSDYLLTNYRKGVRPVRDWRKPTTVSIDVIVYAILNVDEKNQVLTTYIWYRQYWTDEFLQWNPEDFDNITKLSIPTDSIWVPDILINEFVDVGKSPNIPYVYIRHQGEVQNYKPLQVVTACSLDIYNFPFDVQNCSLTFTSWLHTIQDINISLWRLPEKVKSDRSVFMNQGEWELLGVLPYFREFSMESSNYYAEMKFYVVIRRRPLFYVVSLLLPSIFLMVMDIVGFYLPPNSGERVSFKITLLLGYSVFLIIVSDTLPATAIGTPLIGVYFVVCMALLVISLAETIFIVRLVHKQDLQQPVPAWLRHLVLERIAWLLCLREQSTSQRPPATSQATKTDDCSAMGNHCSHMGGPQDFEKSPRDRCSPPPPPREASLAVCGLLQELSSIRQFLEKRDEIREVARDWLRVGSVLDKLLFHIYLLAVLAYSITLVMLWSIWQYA

[3] = target: T3, Adenosine receptor A3 (Homo sapiens, UniProt P0DMS8)
T3 sequence (P0DMS8 whole entry): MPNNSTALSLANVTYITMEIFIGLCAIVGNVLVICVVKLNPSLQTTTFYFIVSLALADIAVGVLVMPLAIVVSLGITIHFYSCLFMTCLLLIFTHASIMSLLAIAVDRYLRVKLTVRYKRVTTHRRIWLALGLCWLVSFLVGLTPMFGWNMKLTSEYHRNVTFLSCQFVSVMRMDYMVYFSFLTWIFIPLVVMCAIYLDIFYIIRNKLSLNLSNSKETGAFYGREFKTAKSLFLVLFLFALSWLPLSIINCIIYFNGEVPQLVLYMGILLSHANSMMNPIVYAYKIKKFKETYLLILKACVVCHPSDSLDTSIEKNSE

[4] = target: Histamine H2 receptor (Homo sapiens, UniProt P25021); type: functional, cell-based
[5] = target: Sodium-dependent dopamine transporter (Homo sapiens, UniProt Q01959)
[6] = target: Growth hormone secretagogue receptor type 1 (Homo sapiens, UniProt Q92847)
[7] = target: Muscarinic acetylcholine receptor M3 (Homo sapiens, UniProt P20309)
[8] = target: T4, Progesterone receptor (Homo sapiens, UniProt P06401); type: functional
T4 sequence (P06401 whole entry): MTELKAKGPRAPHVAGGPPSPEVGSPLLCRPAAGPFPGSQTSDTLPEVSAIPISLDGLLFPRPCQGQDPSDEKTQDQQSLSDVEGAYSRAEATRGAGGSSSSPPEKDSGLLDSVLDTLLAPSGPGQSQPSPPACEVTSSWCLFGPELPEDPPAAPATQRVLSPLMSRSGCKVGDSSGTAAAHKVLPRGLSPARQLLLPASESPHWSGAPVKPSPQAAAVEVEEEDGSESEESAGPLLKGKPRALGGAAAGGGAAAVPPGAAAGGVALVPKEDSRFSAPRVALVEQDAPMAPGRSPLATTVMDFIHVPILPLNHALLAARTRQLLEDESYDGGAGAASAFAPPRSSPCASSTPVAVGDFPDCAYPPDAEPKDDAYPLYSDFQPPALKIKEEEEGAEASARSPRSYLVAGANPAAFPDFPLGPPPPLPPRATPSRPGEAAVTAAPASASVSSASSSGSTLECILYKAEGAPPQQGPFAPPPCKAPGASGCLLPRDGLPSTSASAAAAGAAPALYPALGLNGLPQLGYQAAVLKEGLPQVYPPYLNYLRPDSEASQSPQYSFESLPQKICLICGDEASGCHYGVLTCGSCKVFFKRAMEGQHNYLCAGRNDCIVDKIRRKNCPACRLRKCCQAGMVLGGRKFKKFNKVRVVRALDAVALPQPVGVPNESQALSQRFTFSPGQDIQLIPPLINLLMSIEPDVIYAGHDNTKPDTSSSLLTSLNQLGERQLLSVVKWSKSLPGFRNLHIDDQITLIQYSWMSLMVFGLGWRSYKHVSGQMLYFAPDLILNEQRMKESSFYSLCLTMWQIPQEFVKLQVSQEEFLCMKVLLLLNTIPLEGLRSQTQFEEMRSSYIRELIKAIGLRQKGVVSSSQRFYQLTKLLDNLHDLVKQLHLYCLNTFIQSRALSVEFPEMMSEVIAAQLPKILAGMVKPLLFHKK

[9] = target: T5, Alpha-2B adrenergic receptor (Homo sapiens, UniProt P18089)
T5 sequence (P18089 whole entry): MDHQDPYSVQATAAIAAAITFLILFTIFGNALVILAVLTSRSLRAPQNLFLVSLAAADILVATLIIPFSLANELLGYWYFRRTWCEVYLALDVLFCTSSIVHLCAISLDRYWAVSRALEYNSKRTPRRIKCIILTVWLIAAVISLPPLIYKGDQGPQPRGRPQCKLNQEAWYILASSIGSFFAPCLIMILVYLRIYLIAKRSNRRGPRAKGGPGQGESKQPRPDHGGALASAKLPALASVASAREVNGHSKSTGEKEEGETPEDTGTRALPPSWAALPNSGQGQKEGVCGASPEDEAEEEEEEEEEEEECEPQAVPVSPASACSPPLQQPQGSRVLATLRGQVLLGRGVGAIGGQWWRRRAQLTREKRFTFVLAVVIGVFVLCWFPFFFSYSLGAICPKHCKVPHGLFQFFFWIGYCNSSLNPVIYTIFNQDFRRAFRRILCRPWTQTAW

Measured: AC50
Note: assay procedure not described here.

Chain of Histamine H2 receptor (P25021 whole entry): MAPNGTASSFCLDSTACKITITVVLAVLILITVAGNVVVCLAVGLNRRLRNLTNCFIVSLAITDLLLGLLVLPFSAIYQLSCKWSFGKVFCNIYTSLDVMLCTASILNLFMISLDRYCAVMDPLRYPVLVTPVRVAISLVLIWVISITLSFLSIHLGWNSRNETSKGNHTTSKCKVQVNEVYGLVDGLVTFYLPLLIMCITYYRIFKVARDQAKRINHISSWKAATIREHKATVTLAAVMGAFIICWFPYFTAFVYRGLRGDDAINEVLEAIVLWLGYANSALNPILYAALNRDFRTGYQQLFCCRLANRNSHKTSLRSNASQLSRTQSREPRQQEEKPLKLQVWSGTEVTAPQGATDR
Chain of Muscarinic acetylcholine receptor M3 (P20309 whole entry): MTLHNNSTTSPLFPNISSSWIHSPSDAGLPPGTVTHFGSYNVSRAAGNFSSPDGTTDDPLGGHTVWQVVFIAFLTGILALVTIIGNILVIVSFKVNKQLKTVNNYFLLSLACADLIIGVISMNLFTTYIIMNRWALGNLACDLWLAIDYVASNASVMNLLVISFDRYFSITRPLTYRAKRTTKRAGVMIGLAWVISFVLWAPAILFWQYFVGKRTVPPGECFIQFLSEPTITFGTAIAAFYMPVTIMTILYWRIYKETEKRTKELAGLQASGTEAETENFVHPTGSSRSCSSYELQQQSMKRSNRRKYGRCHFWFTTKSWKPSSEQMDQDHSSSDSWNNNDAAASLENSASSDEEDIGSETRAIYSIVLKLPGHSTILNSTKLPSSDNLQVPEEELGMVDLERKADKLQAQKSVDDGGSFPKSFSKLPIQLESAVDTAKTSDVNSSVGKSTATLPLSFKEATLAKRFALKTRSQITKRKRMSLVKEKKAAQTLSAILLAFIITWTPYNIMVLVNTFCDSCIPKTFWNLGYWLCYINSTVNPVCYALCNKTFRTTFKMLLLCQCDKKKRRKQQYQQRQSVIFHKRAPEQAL
Chain of Sodium-dependent dopamine transporter (Q01959 whole entry): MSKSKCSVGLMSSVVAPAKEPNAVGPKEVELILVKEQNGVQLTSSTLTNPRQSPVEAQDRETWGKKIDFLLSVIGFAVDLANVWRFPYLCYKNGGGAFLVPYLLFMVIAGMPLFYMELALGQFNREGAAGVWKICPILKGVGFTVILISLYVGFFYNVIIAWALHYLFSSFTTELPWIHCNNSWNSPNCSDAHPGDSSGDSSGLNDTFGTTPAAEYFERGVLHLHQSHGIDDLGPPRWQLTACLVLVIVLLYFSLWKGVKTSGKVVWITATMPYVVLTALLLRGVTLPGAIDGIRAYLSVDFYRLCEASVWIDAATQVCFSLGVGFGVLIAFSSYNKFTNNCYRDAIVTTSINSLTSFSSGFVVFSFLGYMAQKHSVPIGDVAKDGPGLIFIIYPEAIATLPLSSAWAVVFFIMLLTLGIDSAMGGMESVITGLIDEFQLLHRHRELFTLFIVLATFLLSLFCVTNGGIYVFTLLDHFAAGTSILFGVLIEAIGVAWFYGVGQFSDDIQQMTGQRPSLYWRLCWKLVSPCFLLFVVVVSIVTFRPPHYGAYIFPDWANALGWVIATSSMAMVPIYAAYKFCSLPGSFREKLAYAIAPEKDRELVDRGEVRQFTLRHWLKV
Chain of Growth hormone secretagogue receptor type 1 (Q92847 whole entry): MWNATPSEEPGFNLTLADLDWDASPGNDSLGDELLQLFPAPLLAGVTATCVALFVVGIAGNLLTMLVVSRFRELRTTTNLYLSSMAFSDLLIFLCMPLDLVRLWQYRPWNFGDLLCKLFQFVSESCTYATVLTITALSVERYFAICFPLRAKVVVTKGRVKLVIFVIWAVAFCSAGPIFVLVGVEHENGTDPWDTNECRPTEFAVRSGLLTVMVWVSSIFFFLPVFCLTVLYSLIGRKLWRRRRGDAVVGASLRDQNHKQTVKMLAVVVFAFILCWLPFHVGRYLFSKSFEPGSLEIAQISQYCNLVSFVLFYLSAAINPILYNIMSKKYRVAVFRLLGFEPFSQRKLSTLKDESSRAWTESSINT

Cc1cccc(C(C)c2cnc[nH]2)c1C (stereo unspecified) [MEDETOMIDINE]
2.1 µM: [9]
> 30 µM: all other assays above

CCCC(C)C1(CC)C(=O)NC(=O)NC1=O (stereo unspecified) [PENTOBARBITAL]
> 30 µM: [2] | [4] | [7] | [9]
> 10 µM: all other assays above

CCC(C(=O)O)c1ccc(N2Cc3ccccc3C2=O)cc1 (stereo unspecified) [INDOBUFEN]
> 30 µM: all assays above

C[C@H](CSC(=O)c1ccccc1)C(=O)N1C[C@@H](Sc2ccccc2)C[C@H]1C(=O)O [ZOFENOPRIL]
> 30 µM: [2] | [7]
> 10 µM: all other assays above

COc1ccccc1OCCNCC(O)c1ccc(C)c(S(N)(=O)=O)c1 (stereo unspecified) [AMOSULALOL]
6.9 µM: [9]
> 30 µM: all other assays above

C=CCN1CCCC1CNC(=O)c1cc(S(N)(=O)=O)cc(OC)c1OC (stereo unspecified) [VERALIPRIDE]
3.2 µM: [9]
> 30 µM: all other assays above

CC(Oc1c(Cl)cccc1Cl)C1=NCCN1 (stereo unspecified) [LOFEXIDINE]
0.74 µM: [9]
> 30 µM: all other assays above

CC(C)=CCC/C(C)=C/C=C/C(C)=C/C=C/C(C)=C/C=C/C=C(C)/C=C/C=C(C)/C=C/C=C(\C)CCC=C(C)C [LYCOPENE]
6.2 µM: [8]
> 30 µM: all other assays above

Clc1ccc(CCCOCCCN2CCCCC2)cc1 [PITOLISANT]
8.5 µM: [5]
> 30 µM: all other assays above
